Earlier results, collected in patent US9993454B2, “Solid nanoparticle formulation of water insoluble pharmaceutical substances with reduced Ostwald ripening” (Luminus Biosciences, Inc., priority 2006, dated 2018).

Conditions: most test systems

## C/C(=C\c1csc(C)n1)[C@@H]1C[C@@H]2O[C@]2(C)CCC[C@H](C)[C@H](O)[C@@H](C)C(=O)C(C)(C)[C@@H](O)CC(=O)O1 [epothilone B]
  effectiveness relative to epothilone A: approximately ten-time more effective
